# Assay results from patent US20080267948A1, “Croos-B Structure Binding Compounds” (priority 2005, published 2008).
# Entries after “also recorded” stand apart in the source; their conditions may differ.
# What was measured:
# Aβ = target: T1, Aβ (Homo sapiens, UniProt P05067, E693Q); assay: Binding of Aβ from solution to immobilized small compounds; conditions: Greiner Microlon, coat 100 μg/ml, Aβ 100 μg/ml
# T1 construct: Lyophilized human amyloid-β(1-40) with E22Q mutation ‘Dutch type’; purchased Peptide facility, Dutch Cancer Institute, Amsterdam; host or cells: synthetic peptide
# Experimental: To test the ability of the twelve selected compounds (see Table 7) to bind to misfolded proteins, […] Greiner Microlon high binding plates, Nunc amino Immobilizer plates and Nunc Maxisorp plates. Compounds were coated in 100 mM NaHCO3 pH 9.6, 50 μl/well, 1 h at room temperature with agitation. As a control, wells were coated with buffer only. After blocking of the plates, wells were overlayed with solutions of 0.1/1/10 μg/ml Hb-AGE or 10/100 μg/ml Aβ, in binding buffer (PBS/0.1% Tween20). After washing, binding of Hb-AGE was assessed by overlaying wells with 1 μg/ml hybridoma antibody 4B5, which binds to glycations(^2), followed by RAMPO. Binding of Aβ was visualized using 500× diluted anti-Aβ antibodies (mouse antibody beta-amyloid Clone 6F/3D #M0872, lot 00003503, DAKOCytomation; β-amyloid (H-43) SC-9129, 200 μg/ml rabbit polyclonal IgG, Santa Cruz Biotechnology) and RAMPO/SWARPO in a 1:1 ratio. Finally, wells were overlayed with OPD/H2O2 solution, and H2SO4, before absorbance readings at 490 nm.
# ovalbumin = target: T2, ovalbumin (Gallus gallus, UniProt P01012); assay: Transmission electron microscopy of ovalbumin heated in the presence of small compounds; set-up: species or system chicken; conditions: 1 mg/ml ovalbumin heated with 1 mg/ml compound
# T2 construct: purchased Sigma A5503
# T2 sequence (P01012 1-386): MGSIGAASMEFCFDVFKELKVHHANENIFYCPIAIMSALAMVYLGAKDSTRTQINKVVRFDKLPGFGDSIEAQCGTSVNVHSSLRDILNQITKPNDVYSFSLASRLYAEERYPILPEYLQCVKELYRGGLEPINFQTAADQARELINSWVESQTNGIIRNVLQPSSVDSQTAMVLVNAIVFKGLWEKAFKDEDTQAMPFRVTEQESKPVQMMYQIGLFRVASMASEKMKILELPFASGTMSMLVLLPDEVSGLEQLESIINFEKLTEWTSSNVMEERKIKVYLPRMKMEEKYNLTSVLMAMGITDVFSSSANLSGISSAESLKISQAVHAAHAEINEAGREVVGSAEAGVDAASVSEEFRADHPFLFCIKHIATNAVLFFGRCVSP
# Method in brief: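 Ovalbumin at 1 mg/ml was applied to carbon-coated Formvar copper grids, washed with PBS and water, then stained 2 min in 2% methylcellulose with 0.4% uranyl acetate, pH 4. Grids were dried and imaged by TEM at 80 kV.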
# [1] = information found on the www, search completed Spring 2006; cited from earlier work
# [2] = test system: misfolded proteins (Hb-AGE, Aβ); assay: Binding of misfolded proteins from solution to immobilized small compounds (overall); conditions: compounds coated on ELISA plates, Hb-AGE or Aβ in solution
# Experimental: To test the ability of the twelve selected compounds (see Table 7) to bind to misfolded proteins, the compounds were immobilized at 10/100/1000 μg/ml in the wells of 96-wells Greiner Microlon high binding plates, Nunc amino Immobilizer plates and Nunc Maxisorp plates. Compounds were coated in 100 mM NaHCO3 pH 9.6, 50 μl/well, 1 h at room temperature with agitation. As a control, wells were coated with buffer only. After blocking of the plates, wells were overlayed with solutions of 0.1/1/10 μg/ml Hb-AGE or 10/100 μg/ml Aβ, in binding buffer (PBS/0.1% Tween20). After washing, binding of Hb-AGE was assessed by overlaying wells with 1 μg/ml hybridoma antibody 4B5, which binds to glycations(^2), followed by RAMPO. Binding of Aβ was visualized using 500× diluted anti-Aβ antibodies (mouse antibody beta-amyloid Clone 6F/3D #M0872, lot 00003503, DAKOCytomation; β-amyloid (H-43) SC-9129, 200 μg/ml rabbit polyclonal IgG, Santa Cruz Biotechnology) and RAMPO/SWARPO in a 1:1 ratio. Finally, wells were overlayed with OPD/H2O2 solution, and H2SO4, before absorbance readings at 490 nm.
# heat-denatured ovalbumin = target: T3, heat-denatured ovalbumin (Gallus gallus, UniProt P01012); assay: Thioflavin T fluorescence of ovalbumin and small compounds; set-up: species or system chicken; conditions: 1 mg/ml compound, 1 mg/ml OVA
# T3 construct: purchased Sigma A5503
# T3 sequence (P01012 1-386): T2 sequence (P01012 1-386)
# Method in brief: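 Heat-denatured ovalbumin at 1 mg/ml in PBS, alone, with 1% v/v DMSO or with 1 mg/ml compound (also heat-denatured after compound addition), mixed 1:9 with 25 μM ThT in 50 mM glycine pH 9.0. Fluorescence read in duplicate at 435 nm excitation, 485 nm emission.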
# [3] = target: T4, heat-denatured misfolded ovalbumin (DOVA) (Gallus gallus, UniProt P01012); assay: ELISA binding of tPA to immobilized misfolded ovalbumin after pre-incubation with compounds; set-up: species or system chicken; conditions: misfolded OVA first overlayed with compound (concentration series), then tPA
# T4 construct: purchased Sigma A5503
# T4 sequence (P01012 2-386 limits assumed): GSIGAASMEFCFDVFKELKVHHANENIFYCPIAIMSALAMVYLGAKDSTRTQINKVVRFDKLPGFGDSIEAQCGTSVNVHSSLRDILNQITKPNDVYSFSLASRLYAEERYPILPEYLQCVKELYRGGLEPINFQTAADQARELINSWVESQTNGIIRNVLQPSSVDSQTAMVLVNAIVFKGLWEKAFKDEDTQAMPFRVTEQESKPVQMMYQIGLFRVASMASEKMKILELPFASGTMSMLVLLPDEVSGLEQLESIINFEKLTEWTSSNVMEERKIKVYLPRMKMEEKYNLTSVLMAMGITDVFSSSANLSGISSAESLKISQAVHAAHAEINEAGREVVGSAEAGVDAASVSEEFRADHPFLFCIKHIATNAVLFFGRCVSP
# Experimental: Compounds were now diluted 10× in PBS/0.1% Tween20 (500 μg/ml compound). […] With this approach a further selection of the compounds was achieved. Now, compounds that at least interact with HB-AGE are selected. With the selection, similar binding assays are performed with misfolded OVA and Aβ. Finally, concentration series of the selected compounds are used in the binding studies.
# tPA/plasminogen = target: T5, tPA/plasminogen (Homo sapiens, UniProt P00750); assay: tPA/plasminogen activation by OVA heated in the presence of compounds (substrate PNAPEP1751); type: biochemical; conditions: 25 μg/ml OVA, 25 μg/ml compound, […] DMSO
# T5 construct: purchased Boehringer Ingelheim Actilyse
# Method in brief: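 Ovalbumin heated alone in PBS/1% DMSO (positive control) or with compounds at 1 mg/ml, then used 40-fold diluted in a tPA/plasminogen activation assay; buffer without OVA as negative control. Chromogenic substrate conversion read at 405 nm, with compound interference at 405 nm checked; signals related to control.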
# tPA = tPA (Homo sapiens, UniProt P00750); assay: Plasminogen activation assay (tPA-mediated conversion of Plg to plasmin); type: biochemical; set-up: purchased Boehringer-Ingelheim Actilyse; conditions: 100 μg ml^−1 protein or peptide, 400 pM tPA, substrate S-2251
# Experimental: Plasmin (Plm) activity was assayed as described^4. Peptides and proteins that were tested for their stimulatory ability were used at 100 μg ml^−1, unless stated otherwise. […] Chromogenic substrate S-2251 (Chromogenix, Instrumentation Laboratory SpA, Milano, Italy) was used to measure Pls activity.
# Purification of β2-glycoprotein I (β2GPI) was performed according to established methods^15,16. Recombinant human β2GPI was made using insect cells and purified as described^15. Plasma derived β2GPI as used in a factor XII ELISA, the Plg-activation assay and in the anti-phospholipid syndrome antibody ELISA (see below), was purified from fresh human plasma as described^16. […]
# Solutions of fibrin peptide FP6, NH2—IDIKIR-COOH (Peptide facility, Dutch Cancer Institute, Amsterdam, the Netherlands) were prepared in various ways. […] Separate samples were prepared similarly and analyzed by electron spray ionization mass spectrometry (ESI-MS) to obtain information on the distribution of the peptide over putatively present oligomers (Dr C. Versluis, Department of Biomolecular Mass Spectrometry, Bijvoet Center for Biomolecular Research, Utrecht University, Utrecht, The Netherlands). […] Micrographs were recorded at 80 kV, at suitable magnifications on a JEM-1200EX electron microscope (JEOL, Japan).
# T5 sequence (P00750 36-562): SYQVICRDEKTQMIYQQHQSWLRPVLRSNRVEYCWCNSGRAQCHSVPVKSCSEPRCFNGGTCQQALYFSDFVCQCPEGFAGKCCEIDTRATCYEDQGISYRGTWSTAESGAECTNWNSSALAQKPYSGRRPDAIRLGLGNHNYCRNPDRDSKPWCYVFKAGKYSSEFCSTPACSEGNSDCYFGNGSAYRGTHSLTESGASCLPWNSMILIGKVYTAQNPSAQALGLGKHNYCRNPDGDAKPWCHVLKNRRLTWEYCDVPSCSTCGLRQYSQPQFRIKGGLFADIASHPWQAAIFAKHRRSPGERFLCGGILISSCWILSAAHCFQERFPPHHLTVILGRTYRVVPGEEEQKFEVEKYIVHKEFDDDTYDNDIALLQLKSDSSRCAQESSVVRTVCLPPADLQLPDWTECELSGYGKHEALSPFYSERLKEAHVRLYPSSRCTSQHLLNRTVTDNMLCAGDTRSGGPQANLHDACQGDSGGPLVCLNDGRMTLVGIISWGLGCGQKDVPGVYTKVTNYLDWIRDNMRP
# Chain of tPA (P00750 36-562): as above
Compound,Signal (a.u.) (Aβ),appearance of ovalbumin heated in the presence of compound on TEM image (ovalbumin),Use or activity in vitro/in vivo [1],capture of misfolded protein from solution by immobilized compound [2],influence on Thioflavin T fluorescence with misfolded OVA (heat-denatured ovalbumin),influence on tPA binding to immobilized misfolded OVA [3],influence on tPA/plasminogen activation by OVA pre-heated in the presence of compound (tPA/plasminogen),stimulation of tPA-mediated conversion of Plg to plasmin (tPA)
"COc1cc2c(C=O)c3c4c(cc(OC)c(OC)c4c2cc1OC)CCN3C [compound 214, dehydroglaucine derivative]",0.14,Smaller but more dense aggregates than in Control,inhibitory effect on lipopolysaccharide (LPS)-induced; also recorded: protection of plants from invasion by micro-organisms; also recorded: antimicrobial activity; also recorded: decrease in the blood pressure after applying intravenously; also recorded: bronchoconstrictor effect; also recorded: inhibitory action on the central nervous system,Capture of misfolded protein from solution,Inhibition of Thioflavin T fluorescence with misfolded OVA,Stimulated tPA binding to immobilized misfolded protein,Inhibition of tPA/plasminogen activation by OVA pre-heated,–
"H-IDIKIR-OH [FP6, reference compound]",–,–,–,–,–,–,–,activates tPA in the chromogenic plasmin activity assay
